The values below come from ChEMBL document CHEMBL2407030, “Novel nicotinic acetylcholine receptor agonists containing carbonyl moiety as a hydrogen bond acceptor” (Bioorg Med Chem Lett, 2013).

Activity calls are given as the source filed them. The calls are words filed in the database; no cut-off is given here.

The target of experiment [1] is T1, Neuronal acetylcholine receptor; alpha3/beta4 (Homo sapiens, UniProt P30926+P32297). The experiment in a line: Displacement of [3H]Epibatidine from human alpha3beta4 nACHR expressed in CHO cell membranes after 2 hrs by liquid scintillation counting analysis.
T1 sequence (P30926 whole entry): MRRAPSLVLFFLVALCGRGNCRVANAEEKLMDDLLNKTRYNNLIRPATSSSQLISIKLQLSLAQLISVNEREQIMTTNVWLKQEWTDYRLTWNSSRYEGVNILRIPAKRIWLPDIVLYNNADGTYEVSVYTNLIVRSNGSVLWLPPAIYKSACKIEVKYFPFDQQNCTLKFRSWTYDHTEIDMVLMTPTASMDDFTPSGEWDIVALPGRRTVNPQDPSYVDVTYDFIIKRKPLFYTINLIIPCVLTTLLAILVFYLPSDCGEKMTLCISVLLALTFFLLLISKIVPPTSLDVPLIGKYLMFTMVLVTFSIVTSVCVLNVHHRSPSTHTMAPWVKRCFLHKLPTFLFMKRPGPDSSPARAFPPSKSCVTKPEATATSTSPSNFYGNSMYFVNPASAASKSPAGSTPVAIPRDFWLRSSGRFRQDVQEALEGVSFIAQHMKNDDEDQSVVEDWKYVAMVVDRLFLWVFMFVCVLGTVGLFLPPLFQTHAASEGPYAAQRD
T1 sequence (P32297 whole entry): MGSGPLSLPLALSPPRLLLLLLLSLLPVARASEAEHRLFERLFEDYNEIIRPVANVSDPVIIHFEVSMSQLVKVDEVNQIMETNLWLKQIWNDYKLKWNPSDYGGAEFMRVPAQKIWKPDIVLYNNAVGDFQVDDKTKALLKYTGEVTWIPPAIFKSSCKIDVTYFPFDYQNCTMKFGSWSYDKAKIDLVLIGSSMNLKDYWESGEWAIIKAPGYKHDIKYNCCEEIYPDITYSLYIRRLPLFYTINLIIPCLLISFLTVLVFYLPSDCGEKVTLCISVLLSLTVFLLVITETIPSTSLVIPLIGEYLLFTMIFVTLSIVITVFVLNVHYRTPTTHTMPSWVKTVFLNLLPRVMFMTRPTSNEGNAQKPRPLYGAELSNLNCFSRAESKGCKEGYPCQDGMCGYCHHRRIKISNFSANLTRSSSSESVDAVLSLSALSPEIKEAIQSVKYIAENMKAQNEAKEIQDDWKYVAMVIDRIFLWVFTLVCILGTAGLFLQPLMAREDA
The target in experiment [2] is T2, Neuronal acetylcholine receptor; alpha4/beta2 (Homo sapiens, UniProt P17787+P43681). Put plainly: Agonist activity at alpha4beta2 nACHR in human SHEP1 cell membranes assessed as stimulation of calcium flux by FLIPR assay relative to control. The format is cell-based.
T2 sequence (P17787 whole entry): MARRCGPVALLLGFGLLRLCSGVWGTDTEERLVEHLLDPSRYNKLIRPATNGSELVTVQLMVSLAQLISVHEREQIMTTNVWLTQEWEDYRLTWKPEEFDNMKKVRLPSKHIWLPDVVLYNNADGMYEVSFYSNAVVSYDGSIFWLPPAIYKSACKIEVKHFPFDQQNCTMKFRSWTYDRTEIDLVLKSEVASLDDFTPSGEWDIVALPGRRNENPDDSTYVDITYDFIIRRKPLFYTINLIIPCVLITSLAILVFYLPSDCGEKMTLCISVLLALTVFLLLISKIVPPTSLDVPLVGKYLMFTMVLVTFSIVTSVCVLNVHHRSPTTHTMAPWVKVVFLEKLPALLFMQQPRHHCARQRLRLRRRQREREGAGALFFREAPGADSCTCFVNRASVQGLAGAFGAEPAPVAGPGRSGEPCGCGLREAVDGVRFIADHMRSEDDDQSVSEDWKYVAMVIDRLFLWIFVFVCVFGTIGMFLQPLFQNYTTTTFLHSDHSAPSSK
T2 sequence (P43681 whole entry): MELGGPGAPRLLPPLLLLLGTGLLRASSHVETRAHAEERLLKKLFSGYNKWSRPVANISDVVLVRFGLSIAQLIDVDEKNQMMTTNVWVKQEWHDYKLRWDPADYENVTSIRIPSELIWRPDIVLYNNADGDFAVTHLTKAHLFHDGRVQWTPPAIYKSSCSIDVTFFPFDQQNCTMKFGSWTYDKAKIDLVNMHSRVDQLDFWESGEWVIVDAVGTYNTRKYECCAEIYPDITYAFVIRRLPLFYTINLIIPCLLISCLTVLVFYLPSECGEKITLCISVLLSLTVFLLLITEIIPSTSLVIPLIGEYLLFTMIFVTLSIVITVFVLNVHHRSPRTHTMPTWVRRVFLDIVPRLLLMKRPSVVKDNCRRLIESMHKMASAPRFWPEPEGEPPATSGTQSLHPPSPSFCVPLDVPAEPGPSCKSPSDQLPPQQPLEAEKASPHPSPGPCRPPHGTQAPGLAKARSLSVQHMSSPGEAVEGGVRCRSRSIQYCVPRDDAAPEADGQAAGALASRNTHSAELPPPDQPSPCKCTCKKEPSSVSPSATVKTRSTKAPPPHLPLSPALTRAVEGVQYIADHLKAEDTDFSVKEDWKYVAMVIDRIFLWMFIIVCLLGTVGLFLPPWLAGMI
Experiment [3] addresses T2, Neuronal acetylcholine receptor; alpha4/beta2. The experiment in a line: Displacement of [3H]Nicotine from alpha4beta2 nACHR in human SHEP1 cell membranes after 2 hrs by liquid scintillation counting analysis.
For experiment [4] the target is unchanged. Put plainly: Agonist activity at alpha4beta2 nACHR in human SHEP1 cell membranes assessed as stimulation of calcium flux by FLIPR assay. The format is cell-based.
Experiment [5] deals with Rattus norvegicus. Put plainly: Cognitive enhancing effect in rat at 0.1 to 3 mg/kg, po by novel object recognition test. The format is functional, organism-based.
In experiment [6] the target is T1, Neuronal acetylcholine receptor; alpha3/beta4. Put plainly: Agonist activity at human alpha3beta4 nACHR expressed in CHO cell membranes assessed as stimulation of calcium flux by FLIPR assay relative to control. The format is cell-based. On the technique in general: A change in cytosolic calcium serves as a functional read-out for many receptors and channels.
For experiment [7] the target is unchanged. Put plainly: Agonist activity at human alpha3beta4 nACHR expressed in CHO cell membranes assessed as stimulation of calcium flux by FLIPR assay. The format is cell-based.
Experiment [8] deals with Neuronal acetylcholine receptor subunit alpha-7 (Homo sapiens, UniProt P36544). Put plainly: Displacement of [3H]Epibatidine from human alpha7 nACHR expressed in CHO cell membranes after 2 hrs by liquid scintillation counting analysis. (In a radioligand displacement assay an active substance lowers the binding of a labelled ligand.)
Chain of Neuronal acetylcholine receptor subunit alpha-7 (P36544 whole entry): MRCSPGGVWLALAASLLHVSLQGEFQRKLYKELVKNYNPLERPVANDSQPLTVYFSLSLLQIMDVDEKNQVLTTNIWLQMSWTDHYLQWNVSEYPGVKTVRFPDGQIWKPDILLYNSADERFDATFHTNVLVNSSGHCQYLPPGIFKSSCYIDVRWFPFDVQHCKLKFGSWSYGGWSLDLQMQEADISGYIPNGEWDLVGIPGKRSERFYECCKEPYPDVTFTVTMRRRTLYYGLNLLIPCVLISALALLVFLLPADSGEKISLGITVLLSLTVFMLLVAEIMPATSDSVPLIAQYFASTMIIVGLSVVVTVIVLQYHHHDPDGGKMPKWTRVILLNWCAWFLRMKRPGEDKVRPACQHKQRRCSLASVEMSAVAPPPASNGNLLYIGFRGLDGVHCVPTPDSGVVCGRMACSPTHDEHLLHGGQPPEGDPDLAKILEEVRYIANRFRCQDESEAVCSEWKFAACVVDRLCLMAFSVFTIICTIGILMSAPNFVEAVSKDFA
For experiment [9], the system named is Rattus norvegicus. Put plainly: Cognitive enhancing effect in rat at 0.003 mg/kg, po by novel object recognition test. The format is functional, organism-based. On the set-up: dose 0.003 mg/kg.

For orientation: Ki means the equilibrium dissociation constant of an inhibitor or competing ligand from its target. By Emax is commonly meant the greatest response seen or fitted, relative to the assay's reference. By EC50 is commonly meant the midpoint of the concentration-response curve.

Take `CCC(=O)N1CC2CNCC2C1` (mixture of isomers): the inhibition constant Ki in experiment [1] was determined as 2100 nM; in experiment [3] it was 12 nM; in [8], 4000 nM. The maximal effect (Emax) in experiment [2] was 120%; in experiment [6] it was 130%. Further, the EC50 in [4] turned out to be 1300 nM; in experiment [7] it was 18000 nM. Also, the result in [5] and in [9] was Active.
